From US5342834A, “Method for androgen supplementation” (priority 1992, dated 1994)
Entries after “also recorded” stand apart in the source; their conditions may differ.

Key:
[1] = Metabolism (decrease of steroid level) in incubation with rat liver cytosol; format: in vitro ADME; details: for remaining at 2 h: 2h incubation, read-out: steroid remaining unmetabolized / recovered
Method: (§1) To prepare rat liver microsomes and cytosol, thawed livers were homogenized in 4 vol. of TED buffer (10mM Tricine, 1.5 mM EDTA, 1 mM dithiothreitol, pH 7.4) using a glass homogenizer and a loosefitting Teflon piston for nine strokes with intermittent cooling. This and all subsequent steps were performed at 4° C. The homogenate was spun at 13000×g for 30 min in a Sorvall refrigerated centrifuge. The supernatant fraction was recentrifuged at 13000×g for another 30 min. The resulting supernatant fraction (13K supernatant) was centrifuged at 105,000×g using a Beckman Ultracentrifuge (Model L) for 60 min. The 105K supernatant (cytosol) was saved. The microsomal pellet was resuspended in TED buffer, and spun down again at 105,000×g. The resulting pellet is known as the 105K pellet of the microsome fraction (or "microsome") .
(§2) Incubation mixtures consisted of 52 nmol of unlabeled steroid (T, 7MNT or 19NT), approximately 40,000 CPM of the corresponding tritiated steroid and 5 umol of NADPH in 0.2 ml TED buffer (pH 7.4). This was incubated for 10 min at 37° C. in a constant temperature water bath. Reaction was initiated by the addition of 0.8 ml of either 13K supernatant, microsomes or cytosol, containing 7.05, 0.62 or 5.64 mg/ml of protein, respectively. Incubations were quenched with 2 ml of ethyl acetate, vortexed briefly, and frozen in a dry ice-alcohol bath. The ethyl acetate was separated from the frozen aqueous phase. Extraction was performed again in the same way. The combined organic phase was evaporated and the remaining steroids were analyzed.
The procedure used for the cytosol preparations was the same as that for microsomes, except that incubations were carried out for 90 min.
(§3) For isolation of radioactive metabolites, the procedure was the same as for unlabeled metabolites, except that each tube contained 50,000 CPM of ^3 H-labeled 7MNT.
(§4) In this series of experiments, the decreases in the levels of testosterone,19-nortestosterone, and 7MNT were followed over a two-hour period of incubation with microsomal or cytosolic fractions of rat liver. […] Catabolism of 19NT was maximum at 30 min, with no further change beyond that, leaving a persistent unmetabolized residue of about 20 percent of the added steroid. After 30 min of incubation, 85 percent of the 7MNT remained unaltered; forty percent of the 7MNT was recovered after 2h.

[2] = Metabolism by rat liver 13K supernatant fraction; format: in vitro ADME; details: 30 min, 37° C., system enriched with NADPH
Method: as §1
as §2, with “Incubations were quenched with 2 ml of ethyl acetate, vortexed briefly, and frozen in a dry ice-alcohol bath. The ethyl acetate was separated from the frozen aqueous phase. Extraction was performed again in the same way.” left out, “analyzed. […]” for “analyzed.”

[3] = Non-androgenic (e.g. progestational) activity
[4] = Metabolism (decrease of steroid level) in incubation with rat liver microsomes; format: in vitro ADME
Method: as §1, §2
In preparation for the isolation and identification of unlabelled steroid metabolites in the microsome preparations, 360 μg of 7MNT were dispensed into 24 tubes in parallel with identical tubes containing ^3 H-labeled 7MNT to be used as marker steroid. The mixtures were incubated for 60 min at 37° C., extracted twice with 2 ml of ethyl acetate, taken to dryness, redissolved in a mixture of dichloromethane/methanol (1:1, v/v) and quantitatively applied to silica gel coated TLC plates along with synthetically prepared suspected metabolites of radioactive 7MNT in a parallel lane. The plates were developed with chloroform/methanol (95:5, v/v). Spots corresponding to the radioactive marked spots were eluted with ethyl acetate and taken to dryness.
as §3, §4

[5] = Metabolism (5α reduction) of 3H-androgens by rat epididymis; format: in vitro ADME; details: for metabolised: rat, epididymis homogenate, pH 7.4, androgen = 100%, read-out: Conversion of 5α reduced metabolites: Diols
Method: The metabolism of T, 19NT and 7MNT by rat epididymis was also studied. Collected epididymides were processed as described for prostate. Incubations were performed in Tricine-buffer pH 7.4 as used for liver incubations. Thin layer chromatography of metabolic mixtures and standards was performed as described for prostate preparations.

[6] = Metabolism (5α reduction) of 3H-androgens by rat ventral prostate homogenate; format: in vitro ADME; details: for metabolism / 5α reduction in prostate (in words): prostate homogenate; for metabolised at 0.5 h: rat, ventral prostate homogenate, ventral prostate, androgen = 100%, 30 min incubation, read-out: Conversion of 5α reduced metabolites: 5α-dihydro-steroid
Method: To study metabolism in rat prostate, ventral prostates (1 g) were collected in ice-cold saline. All subsequent operations were carried out at 0°-4° C. The tissues were washed three times with homogenizing buffer (50 mM tris, 1.5 mM EDTA, 1 mM dithiothreitol and 10% glycerol, pH 7.5) and then homogenized in 4 vol. of the same buffer using an Ultra-turrax at a setting of 6. The prostates were given three 10 seconds bursts with intermittent cooling. The resulting homogenate was passed through four layers of cheesecloth and the filtrate was collected.
Incubation mixtures consisted of 50 nmol of unlabeled steroid, 40,000 CPM of the corresponding tritiated steroid and 1 μmol of NADPH in 0.2 ml of the buffer. The mixture was equilibrated for 10 min at 37° C. Reaction was started by adding 0.8 ml of homogenate (5.3 mg/ml protein). After 30 min of incubation, the mixture was cochromatographed with authentic steroids selected as possible metabolites.

[7] = background statement; cited from earlier work

SMILES: C[C@@H]1CC2=CC(=O)CC[C@@H]2[C@H]2CC[C@]3(C)[C@@H](O)CC[C@H]3[C@@H]21 [7MNT, 7α-methyl-19-nortestosterone]
- metabolism in cytosol (in words) [1]: Half of the starting 7MNT was recovered after 2h incubation; also recorded: generated at least one metabolite that was more polar than the parent compound
- metabolism by 13K supernatant (in words) [2]: relatively resistant to metabolism under these incubation conditions; also recorded: Two metabolites, tentatively identified as 7α-methyl-5β-estrane-3, 17β-diol and 7α-methyl-estr-4-ene-3, 17-dione were found; also recorded: A minor highly polar metabolite was also observed
- androgen potency (in words) (Androgenic potency): high potency
- non-androgenic activity (in words) [3]: lack of significant non-androgenic activity
- metabolism in microsomes (in words) [4]: After 30 min of incubation, most of the 7MNT was retrieved unaltered; also recorded: Two significant 7α-methylated metabolites were observed: a less polar one representing the 3,17-dione, and a more polar one in the region of the diols or triols; also recorded: An additional quantitatively minor polar metabolite was also detected
- remaining at 0.5 h ([4]; after 30 min of incubation, read-out: steroid remaining unaltered): 85%
- steroid recovered ([4]; after 2h): forty
- metabolism / 5α reduction in epididymis (in words) [5]: substantially no 5α-dihydro product was formed in either tissue; also recorded: epididymis did not reduce or otherwise metabolize 7MNT
- metabolism / 5α reduction in prostate (in words) [6]: substantially no 5α-dihydro product was formed in either tissue; also recorded: remained unmetabolized; also recorded: did not reduce or otherwise metabolize 7MNT; also recorded: not converted to the 5α-dihydro product

SMILES: C[C@]12CC[C@H]3[C@@H](CCC4=CC(=O)CC[C@@H]43)[C@@H]1CC[C@@H]2O [19NT, 19-nortestosterone]
- metabolism in cytosol (in words) [1]: still slower
- remaining at 2 h [1]: 40%
- metabolism in microsomes (in words) [4]: qualitatively similar to that of T, though slower
- persistent unmetabolized residue of the added steroid ([4]; beyond 30 min of two-hour incubation): about 20%
- time of maximum catabolism ([4]; two-hour incubation): 30 min
- metabolism / 5α reduction in epididymis (in words) [5]: converted to their respective reduced A ring metabolites; also recorded: metabolized more slowly than T
- metabolised [5]: 57%
- metabolism / 5α reduction in prostate (in words) [6]: metabolized to the reduced product more slowly than testosterone
- metabolised at 0.5 h [6]: 22%

SMILES: C[C@]12CCC(=O)C[C@@H]1CC[C@@H]1[C@@H]2CC[C@]2(C)[C@@H](O)CC[C@@H]12 [DHT, 5α-dihydrotestosterone]
- androgen potency versus testosterone (in words) [7]: much more potent androgen than testosterone

SMILES: C[C@]12CC[C@H]3[C@@H](CCC4=CC(=O)CC[C@@]43C)[C@@H]1CC[C@@H]2O [T, testosterone]
- remaining at 2 h [1]: ~12%
- metabolism in microsomes (in words) [4]: completely metabolized by the microsomes before the earliest aliquot was taken
- time before which steroid was completely metabolized ([4]; earliest aliquot taken at 15 min): < 15 min
- metabolism / 5α reduction in epididymis (in words) [5]: converted to their respective reduced A ring metabolites
- metabolised [5]: 86%
- metabolism / 5α reduction in prostate (in words) [6]: nearly half of the added T was reduced to 5α-DHT
- metabolised at 0.5 h [6]: 48%
